Measurements published in US20230173014A1, “WINE LEES, DERIVATIVES THEREOF AND THEIR USES” (GRANDES VINOS Y VIÑEDOS SA, priority 2021, published 2023).

Tests used:
[1] = test system: spontaneously hypertensive rats (SHR); assay: Antihypertensive activity after acute intragastric administration in hypertensive rats (tail-cuff); assay type: in vivo, rat; settings: for ΔSBP (mmHg) 2 h: mean ± ESM n=6; for ΔSBP (mmHg) 4 h / ΔSBP (mmHg) 6 h / ΔSBP (mmHg) 8 h / ΔSBP (mmHg) 24 h / ΔSBP (mmHg) 48 h: same doses; for maximum values of SBP reduction: printed as at 4 h post-administration
Experimental: For the study, male SHR rats 17-20 weeks old and weighing between 310 and 360 g, from Charles River Laboratories España S.A. were used. The rats remained at a stable ambient temperature of 23° C., and with light-dark cycles of 12 hours, eating food and water ad-libitum.
The BP measurement in these animals was carried out with a modification of the tail-cuff technique, following the methodology and equipment described by Mas-Capdevila et al. 2018. The measurement of the SBP was performed prior to the administration of the treatments and after their administration at 2, 4, 6, 8, 24 and 48 h. The treatments consisted of the acute administration of a dose of 5 mL/kg bw of the different wine lees (supernatant collected after centrifugation at 2,950×g, 15 min, 4° C.). The effect of water administration (1.5 mL, negative control) was also evaluated in order to know the circadian variation of SBP in rats and of captopril (50 mg/kg bw dissolved in 1.5 mL of water), antihypertensive drug used as a positive control. The administration of all the treatments was carried out by means of an intragastric tube at between 9 and 10 a.m.
The SBP and DBP results are represented as a decrease in SBP or DBP at different times with respect to the SBP or DBP observed at 0 h (without treatment) for each animal (FIG. 1). Each data represents the mean±the ESM (n=6). Furthermore, the data of the different groups were compared in a 2-way analysis of variance (ANOVA) using the Tukey test at each post-administration time with the SPSS statistical program (IBM SPSS Statistics software version 20.0) and the difference was considered significant for p values <0.05.
In the present example, the effect of dry UVC wine lees, without alcohol, on its antihypertensive activity is described by means of its acute administration to SHR rats. The study was carried out following the method and conditions described in Example 3. The treatments that were evaluated consisted of the acute administration of water (1.5 mL), captopril (50 mg/kg bw), UVC wine lees (5 mL/kg bw), or the same lyophilized lees (125 mg/kg bw). The tested dose of lyophilized lees (125 mg/kg bw) corresponded to the same amount of dry product that is in 5 mL/kg bw of the wine lees. Solid state treatments were diluted in water for administration to animals. […] In fact, it increased its effectiveness from the two hours after its administration, producing a drop in systolic blood pressure of −33 mmHg compared to −12 mmHg, a drop produced by those without drying. Furthermore, its effect was more prolonged in time. Specifically, lyophilized UVC wine lees produced a drop in SBP of −41 mmHg at 24 h post-administration.
The antihypertensive effect of the “hydrolysate 3” was studied for 72 h (0, 2, 4, 6, 8, 24, 48, and 72 h), after its administration by intragastric tube. As in Example 3, negative and positive BP controls were performed, obtained after administration of water and captopril (50 mg/kg bw) respectively, in a volume of 1.5 mL per animal. The antihypertensive activity of the wine lees used to prepare “hydrolysate 3” and “hydrolysate 3” was evaluated, both at a dose of 5 mL/kg bw. The lees used in these tests were from a different batch than the one used in Example 3.
For the evaluation of the possible acute antihypertensive effect of the peptides, a study in SHR rats was carried out, provided by Charles River Laboratories Espana S.A. The rats' age, stalling conditions and BP measurement technique were the same as those described in Example 3. The initial SBP of the animals was 204±2 mmHg. A negative control (water) and a positive control (captopril) were also included during the study. The peptides were administered intragastrically at a single dose of 10 mg/kg bw and captopril at 50 mg/kg bw, diluted in water. BP measurements were pooled and the mean±ESM was obtained (n=6 per group). The same analysis of variance was used as in Example 3.

[2] = molecular target: Angiotensin Converting Enzyme (ACE) (Homo sapiens, UniProt P12821); assay: ACEI activity measurement (in vitro ACE inhibition); assay type: biochemical; settings: synthetic peptides at 0.83 mg/mL
Angiotensin Converting Enzyme (ACE), sequence (P12821 30-1306, species assumed): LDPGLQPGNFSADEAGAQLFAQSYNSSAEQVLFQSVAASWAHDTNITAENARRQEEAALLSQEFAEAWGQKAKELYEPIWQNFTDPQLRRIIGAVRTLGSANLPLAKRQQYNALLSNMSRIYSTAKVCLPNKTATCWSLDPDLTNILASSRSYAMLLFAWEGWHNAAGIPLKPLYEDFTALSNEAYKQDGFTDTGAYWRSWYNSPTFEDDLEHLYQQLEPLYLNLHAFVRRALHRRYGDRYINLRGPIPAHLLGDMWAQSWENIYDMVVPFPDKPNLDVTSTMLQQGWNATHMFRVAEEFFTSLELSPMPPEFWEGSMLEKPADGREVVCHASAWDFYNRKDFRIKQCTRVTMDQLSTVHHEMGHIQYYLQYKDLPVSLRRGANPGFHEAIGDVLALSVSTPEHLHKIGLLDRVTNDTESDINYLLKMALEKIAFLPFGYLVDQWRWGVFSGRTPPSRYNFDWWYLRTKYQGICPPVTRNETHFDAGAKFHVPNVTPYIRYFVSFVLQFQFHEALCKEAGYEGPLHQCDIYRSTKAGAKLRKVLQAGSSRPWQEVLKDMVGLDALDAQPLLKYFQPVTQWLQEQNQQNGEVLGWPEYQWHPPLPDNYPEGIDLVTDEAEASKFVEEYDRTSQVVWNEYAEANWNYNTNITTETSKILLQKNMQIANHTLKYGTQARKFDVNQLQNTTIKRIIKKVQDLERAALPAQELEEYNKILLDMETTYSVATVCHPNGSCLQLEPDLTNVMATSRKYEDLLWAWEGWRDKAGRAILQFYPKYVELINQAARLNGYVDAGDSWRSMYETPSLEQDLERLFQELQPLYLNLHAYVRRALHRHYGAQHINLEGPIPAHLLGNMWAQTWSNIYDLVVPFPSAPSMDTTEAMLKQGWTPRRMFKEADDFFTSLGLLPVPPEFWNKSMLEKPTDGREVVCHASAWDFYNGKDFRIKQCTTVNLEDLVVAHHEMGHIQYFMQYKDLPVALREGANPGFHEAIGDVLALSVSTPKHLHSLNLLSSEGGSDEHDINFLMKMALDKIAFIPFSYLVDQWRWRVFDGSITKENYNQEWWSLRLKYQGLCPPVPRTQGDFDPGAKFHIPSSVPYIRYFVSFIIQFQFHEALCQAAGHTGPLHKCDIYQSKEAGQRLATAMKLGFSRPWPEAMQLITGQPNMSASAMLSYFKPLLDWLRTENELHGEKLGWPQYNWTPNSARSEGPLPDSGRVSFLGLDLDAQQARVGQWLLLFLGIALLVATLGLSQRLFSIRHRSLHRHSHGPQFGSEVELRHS
Experimental: Once the wine lees were collected, they were centrifuged at 2,950×g, 15 min, 4° C. and the supernatant was collected. The ACEI activity of the supernatants was determined as described in Example 2.
The ACEI activity measurement of the wine lees and their hydrolysates was performed according to the method described by Mas-Capdevila et al. 2018 (“Dose-related antihypertensive properties and the corresponding mechanisms of a chicken foot hydrolysate in hypertensive rats”. Nutrients. 2018, 10 (9), 1295), after centrifugation at 2,950×g, 15 min, 4° C. and a dilution of 1/256.
The percentage of inhibition (% Inhibition) was calculated applying the following formula: […]
The IC50 was calculated by determining the ACEI percentage of different concentrations of the sample. […] Subsequently, the necessary amount of the sample was calculated to inhibit 50% of the enzyme by extrapolating in the previously obtained straight line. […]

[3] = Example 10, peptides 10 mg/kg bw, captopril 50 mg/kg bw, intragastric

Row | Compound | ΔSBP (mmHg) 2 h [1, 3] [mmHg] | ΔSBP (mmHg) 4 h ([1]; Example 10) [mmHg] | ΔSBP (mmHg) 6 h ([1]; Example 10) [mmHg] | ΔSBP (mmHg) 8 h ([1]; Example 10) [mmHg] | ΔSBP (mmHg) 24 h ([1]; Example 10) [mmHg] | ΔSBP (mmHg) 48 h ([1]; Example 10) [mmHg] | ACEI activity (%) [2] [%] | other results
1 | C[C@H](CS)C(=O)N1CCC[C@H]1C(=O)O [Captopril, captopril, reference compound] | −19 ± 6 | −34 ± 4 | −44 ± 4 | −45 ± 3 | −22 ± 6 | −7 ± 4 | – | maximum decrease in SBP ([1]; Example 3, FIG. 1A, at 6 h post-administration, wine lees 5 mL/kg bw, captopril 50 mg/kg bw): −43.2±3.9 mmHg; maximum decrease in DBP ([1]; Example 3, FIG. 1B, at 6 h post-administration, wine lees 5 mL/kg bw, captopril 50 mg/kg bw): −47.2±1.5 mmHg; ΔSBP (mmHg) 2 h ([1]; Example 4, captopril 50 mg/kg bw, UVC wine lees 5 mL/kg bw, lyophilized lees 125 mg/kg bw): −24 ± 3 mmHg; ΔSBP (mmHg) 4 h ([1]; Example 4): −26 ± 2 mmHg; ΔSBP (mmHg) 6 h ([1]; Example 4): −43 ± 4 mmHg; ΔSBP (mmHg) 8 h ([1]; Example 4): −16 ± 3 mmHg; ΔSBP (mmHg) 24 h ([1]; Example 4): −1 ± 2 mmHg; ΔSBP (mmHg) 48 h ([1]; Example 4): −2 ± 3 mmHg; maximum decrease in SBP at 6 h ([1]; Example 8, FIG. 4, captopril 50 mg/kg bw): −43 mm Hg; decrease in SBP at 48 h after administration ([1]; Example 8, hydrolysate 5 mL/kg bw, captopril 50 mg/kg bw): no longer exerted any significant effect; ΔSBP (mmHg) 2 h ([1]; Example 10, peptides 10 mg/kg bw, captopril 50 mg/kg bw, intragastric, listed as captopril): −19 mmHg; ΔSBP (mmHg) 24 h ([1]; Example 10, listed as captopril): −22 mmHg; decrease in SBP ([1]; FIG. 2A, 6 h after administration, captopril 50 mg/kg bw): −43 mmHg
2 | FKTTDQQTRTTVA (Synthesized peptide P1) [peptide identified in hydrolysate 3, chemically synthesized] | −12 ± 2 | −15 ± 4 | −23 ± 5 | −24 ± 3 | −13 ± 3 | −1 ± 3 | 27.0 ± 5.6 | maximum values of SBP reduction ([1]; Example 10, 10 mg/kg bw): −23 mmHg
3 | LDSPSEGRAPG (Synthesized peptide P5) [peptide identified in hydrolysate 3, chemically synthesized] | −10 ± 4 | −12 ± 5 | −18 ± 3 | −18 ± 3 | −3 ± 4 | −1 ± 4 | – | –
4 | LDSPSEGRAPGAD (Synthesized peptide P6) [peptide identified in hydrolysate 3, chemically synthesized] | −11 ± 2 | −16 ± 4 | −24 ± 3 | −22 ± 4 | −2 ± 4 | −5 ± 4 | 2.4 ± 0.9 | maximum values of SBP reduction ([1]; Example 10, 10 mg/kg bw): −24 mmHg
5 | NPKLVTIV (Synthesized peptide P2) [peptide identified in hydrolysate 3, chemically synthesized] | −9 ± 6 | −13 ± 4 | −19 ± 5 | −14 ± 3 | −5 ± 4 | −5 ± 3 | 48.5 ± 9.1 | –
6 | PAGELHP (Synthesized peptide P4) [peptide identified in hydrolysate 3, chemically synthesized] | −7 ± 3 | −5 ± 4 | −6 ± 5 | −5 ± 4 | −3 ± 7 | −2 ± 3 | – | antihypertensive effect in SHR ([1]; Example 10, 10 mg/kg bw): did not show an antihypertensive effect
7 | TVTNPARIA (Synthesized peptide P3) [peptide identified in hydrolysate 3, chemically synthesized] | −2 ± 4 | −14 ± 4 | −16 ± 2 | −14 ± 4 | −5 ± 3 | −2 ± 3 | – | –
